Assay results as given in US9079886B2, “Substituted triazole derivatives as gamma secretase modulators” (Janssen Pharmaceuticals, Inc., priority 2010, dated 2015).
Read-outs that look alike come from different tables or passages of the source.

How the values were obtained:
[1] = Central brain availability: compound levels in plasma and brain; assay type: in vivo; conditions: mouse, dose 30 mg/kg oral dosing
Experimental: (§1) A typical protocol for measuring Aβ42 lowering in vivo is shown but it is only one of many variations that could be used to optimize the levels of detectable Aβ. For example, Aβ42 lowering compounds were formulated in 20% of Captisol® (a sulfobutyl ether of β-cyclodextrin) in water or 20% hydroxypropyl β cyclodextrin. The Aβ42 lowering agents were administered as a single oral dose or by any acceptable route of administration to overnight fasted animals. After 4 h, the animals were sacrificed and Aβ42 levels were analysed.
(§2) Blood was collected by decapitation and exsanguinations in EDTA-treated collection tubes. Blood was centrifuged at 1900 g for 10 minutes (min) at 4° C. and the plasma recovered and flash frozen for later analysis. The brain was removed from the cranium and hindbrain. The cerebellum was removed and the left and right hemisphere were separated. The left hemisphere was stored at −18° C. for quantitative analysis of test compound levels. The right hemisphere was rinsed with phosphate-buffered saline (PBS) buffer and immediately frozen on dry ice and stored at −80° C. until homogenization for biochemical assays.
Also the central brain availability of Compounds 3, 5, 10 and A were measured:
The results are shown in Table 5 (dose 30 mg/kg oral dosing; 4 hours): […]

[2] = Liver metabolic stability assay, human liver microsomes; assay type: in vitro ADME; conditions: 1 μM substrate, 1 mg/ml protein, 37° C., 15 minutes
Experimental: (§3) Each compound was spiked into a suspension of liver microsomes prepared from the species under investigation, at a final substrate concentration of 1 μM, and a protein concentration of 1 mg/ml, and pre-incubated at 37° C. for 11 minutes. The incubation also contains a NADPH (3-nicotinamide adenine dinucleotide phosphate, reduced) regenerating system. After this preincubation period, NADP (β-nicotinamide adenine dinucleotide phosphate) was added to the active incubations, and the incubations maintained at 37° C. for 15 minutes, during which period metabolism can take place. After 15 minutes, 2 volumes of DMSO (dimethylsulfoxide) were added to each active incubation to inactivate and precipitate proteins. Control incubations were not preincubated at 37° C., but instead were quenched by the addition of DMSO prior to the addition of NADP. Following centrifugation, the supernatant from each incubation was transferred to a separate analysis plate, and analysed for the concentration of the parent compound by LC/MS/MS using a compound-specific LC/MS/MS method and a generic HPLC gradient. The turnover of the parent compound is expressed as the % reduction in concentration in the analyte samples compared to that in the control incubations. Each incubation is performed in triplicate.

[3] = system: Aβ42 and Aβtotal in the soluble fraction of brain homogenates; experiment: In vivo Aβ42 lowering: brain soluble Aβ42 and Aβtotal by ELISA after a single oral dose; design: species or system mouse; conditions: Mus musculus, po, 4 h, dose 30 mg/kg oral dosing, 4 h after dosing
Text: To determine whether acute administration of an Aβ42 lowering agent would reduce Aβ42 levels in vivo, non-transgenic rodents, e.g. mice or rats were used. Animals treated with the Aβ42 lowering agent were examined and compared to those untreated or treated with vehicle and brain levels of soluble Aβ42 and total A13 were quantitated by standard techniques, for example, using ELISA. Treatment periods varied from hours (h) to days and were adjusted based on the results of the Aβ42 lowering once a time course of onset of effect could be established.
as §1, §2
Mouse brains from non-transgenic animals were resuspended in 8 volumes of 0.4% DEA (diethylamine)/50 mM NaCl containing protease inhibitors (Roche-11873580001 or 04693159001) per gram of tissue, e.g. for 0.158 g brain, add 1.264 ml of 0.4% DEA. All samples were homogenized in the FastPrep-24 system (MP Biomedicals) using lysing matrix D (MPBio #6913-100) at 6 m/s for 20 seconds. Homogenates were centrifuged at 221.300×g for 50 min. The resulting high speed supernatants were then transferred to fresh eppendorf tubes. Nine parts of supernatant were neutralized with 1 part 0.5 M Tris-HCl pH 6.8 and used to quantify Aβtotal and Aβ42.
To quantify the amount of Aβtotal and Aβ42 in the soluble fraction of the brain homogenates, Enzyme-Linked-Immunosorbent-Assays were used. Briefly, the standards (a dilution of synthetic Aβ1-40 and Aβ-42, Bachem) were prepared in 1.5 ml Eppendorf tube in Ultraculture, with final concentrations ranging from 10000 to 0.3 pg/ml. The samples and standards were co-incubated with HRPO-labelled N-terminal antibody for Aβ42 detection and with the biotinylated mid-domain antibody 4G8 for Aβtotal detection. 50 μl of conjugate/sample or conjugate/standards mixtures were then added to the antibody-coated plate (the capture antibodies selectively recognize the C-terminal end of Aβ42, antibody JRF/cAB42/26, for Aβ42 detection and the N-terminus of Aβ, antibody JRF/rAβ/2, for Aβtotal detection). The plate was allowed to incubate overnight at 4° C. in order to allow formation of the antibody-amyloid complex. Following this incubation and subsequent wash steps the ELISA for Aβ42 quantification was finished by addition of Quanta Blu fluorogenic peroxidase substrate according to the manufacturer's instructions (Pierce Corp., Rockford, Il). A reading was performed after 10 to 15 min (excitation 320 nm/emission 420 nm).
For Aβtotal detection, a Streptavidine-Peroxidase-Conjugate was added, followed 60 min later by an addional wash step and addition of Quanta Blu fluorogenic peroxidase substrate according to the manufacturer's instructions (Pierce Corp., Rockford, Il). A reading was performed after 10 to 15 min (excitation 320 nm/emission 420 nm). […]

[4] = Liver metabolic stability assay, mouse liver microsomes; assay type: in vitro ADME; conditions: 1 μM substrate, 1 mg/ml protein, 37° C., 15 minutes
Experimental: as §3

[5] = untreated animals (Ctrl) set at 100, read-out: Aβ42 (% vs Ctrl) _Mean
[6] = untreated animals (Ctrl) set at 100, read-out: Aβtotal (% vs Ctrl)_Mean

Structure (SMILES): COc1cc(Nc2nc(Oc3ccccc3Cl)n(C(C)C)n2)ccc1-n1cnc(C)n1 [Compound 3]
- concentration at 4 h ([1]; brain, read-out: Brain): 8510 ng/g
- concentration at 4 h ([1]; plasma, read-out: Plasma): 7740 ng/mL

Structure (SMILES): COc1cc(Nc2nc(Oc3cccc(C(F)(F)F)c3)n(C(C)C)n2)ccc1-n1cnc(C)n1 [Compound 5]
- melting point: 166.6 °C
- concentration at 4 h ([1]; brain, read-out: Brain): 1630 ng/g
- concentration at 4 h ([1]; plasma, read-out: Plasma): 1630 ng/mL

Structure (SMILES): COc1cc(Nc2nc(-c3ccc(F)cc3)n(C)n2)ccc1-n1cnc(C)c1 [Compound 10]
- turnover of the parent compound (% reduction in concentration vs control incubations), human liver microsomes [2]: 14%
- melting point: 247.1 °C
- response vs control in vivo at 30 mg/kg [3, 5]: 68%
- response vs control in vivo at 30 mg/kg [3, 6]: 110%
- turnover of the parent compound (% reduction in concentration vs control incubations), mouse liver microsomes [4]: 10%
- concentration at 4 h ([1]; brain, read-out: Brain): 4640 ng/g
- concentration at 4 h ([1]; plasma, read-out: Plasma): 2700 ng/mL

Structure (SMILES): COc1cc(Nc2nc(-c3cccc(C(F)(F)F)c3)n(C(C)C)n2)ccc1-n1cnc(C)c1 [Compound 46]
- melting point: 186.8 °C
- response vs control in vivo at 30 mg/kg [3, 5]: 61%
- response vs control in vivo at 30 mg/kg [3, 6]: 98%

Structure (SMILES): COc1cc(Nc2nc(Oc3ccccc3Cl)n(C(C)C)n2)ccc1-n1cnc(C)c1 [Compound 52]
- melting point: 167.1 °C
- response vs control in vivo at 30 mg/kg [3, 5]: 45%
- response vs control in vivo at 30 mg/kg [3, 6]: 112%

Structure (SMILES): COc1cc(Nc2nc(N3CCCC(C(F)(F)F)C3)n(C(C)C)n2)ccc1-n1cnc(C)c1 (stereo not drawn) [Compound 54]
- melting point: 173 °C
- response vs control in vivo at 30 mg/kg [3, 5]: 46%
- response vs control in vivo at 30 mg/kg [3, 6]: 88%

Structure (SMILES): Cc1cc(-c2ccc(Nc3nc(Oc4ccccc4Cl)n(C(C)C)n3)cc2)ccn1 [Compound 140]
- melting point: 142.5 °C
- response vs control in vivo at 30 mg/kg [3, 5]: 83%
- response vs control in vivo at 30 mg/kg [3, 6]: 86%

Structure (SMILES): COc1cc(Nc2nnc(-c3ccc(F)cc3)[nH]2)ccc1-n1cnc(C)c1 [Compound A, reference compound]
- turnover of the parent compound (% reduction in concentration vs control incubations), human liver microsomes [2]: 64%
- response vs control in vivo at 30 mg/kg [3, 5]: 101%
- response vs control in vivo at 30 mg/kg [3, 6]: 106%
- turnover of the parent compound (% reduction in concentration vs control incubations), mouse liver microsomes [4]: 22%
- concentration at 4 h ([1]; brain, read-out: Brain): 0 ng/g
- concentration at 4 h ([1]; plasma, read-out: Plasma): 0 ng/mL
